# Measured values: the supplement of paper PMC12317010
# Assay: collision cross section in nitrogen (drift tube, single-field); higher = larger gas-phase ion size
# [1] = ion type: [M-H], ion source: ESI, ion mode: Negative
# [2] = ion type: [M+H], ion source: APCI, ion mode: Positive
# [3] = ion type: [M+H], ion source: ESI, ion mode: Positive
# [4] = ion type: [M+Na], ion source: ESI, ion mode: Positive
# [5] = ion type: [M+], ion source: APCI, ion mode: Positive
# 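Note: chemical standards at 10 µM analysed by drift tube IMS-QTOF MS in about 3.95 torr nitrogen, mean of duplicate injections differing ≤1%, mass error below 10 ppm.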
SMILES,collision cross section in nitrogen [1],collision cross section in nitrogen [2],collision cross section in nitrogen [3],collision cross section in nitrogen [4],collision cross section in nitrogen [5]
"CC(C)(C)c1ccc(O)cc1 [4-(1,1-Dimethylethyl)phenol]",139.5 Å²,–,–,–,–
"CCOc1cc([N+](=O)[O-])c(OCC)cc1N1CCOCC1 [4-(2,5-Diethoxy-4-nitrophenyl)morpholine]",–,173.1 Å²,173.2 Å²,–,–
CCC(C)(C)c1ccc(O)cc1 [4-(2-Methylbutan-2-yl)phenol],143.8 Å²,–,–,–,–
"CC1=NN(c2ccc(C(=O)O)cc2)C(=O)C1 [4-(3-Methyl-5-oxo-4,5-dihydro-1H-pyrazol-1-yl)benzoic acid]",146.2 Å²,–,151.6 Å²,–,–
c1ccc(CCCc2ccncc2)cc1 [4-(3-Phenylpropyl)pyridine],–,145.9 Å²,146.1 Å²,–,–
CC(C)Oc1ccc(S(=O)(=O)c2ccc(O)cc2)cc1 [4-((4-Isopropoxyphenyl)sulfonyl)phenol],174.8 Å²,180.9 Å²,171.8 Å²,187.9 Å²,–
CCN(CC)c1ccc(C=O)cc1 [4-(Diethylamino)benzaldehyde],–,139.4 Å²,140.3 Å²,–,–
CCN(CC)c1ccc(C=O)c(O)c1 [4-(Diethylamino)salicylaldehyde],147 Å²,142.6 Å²,143.7 Å²,–,–
c1cc(N(CC2CO2)CC2CO2)ccc1OCC1CO1 (stereo not given) [4-(Diglycidylamino)phenyl glycidyl ether],–,167.5 Å²,167 Å²,161.7 Å²,–
CCCCC(CC)COC(=O)c1ccc(N(C)C)cc1 (stereo not given) [4-(Dimethylamino)benzoic acid 2-ethylhexyl ester],–,185.9 Å²,185.2 Å²,–,–
CC1(CO)CN(c2ccccc2)NC1=O (stereo not given) [4-(Hydroxymethyl)-4-methyl-1-phenylpyrazolidin-3-one],–,–,–,–,143.2 Å²
CN(CCCC(O)c1cccnc1)N=O (stereo not given) [4-(Methylnitrosamino)-1-(3-pyridyl)-1-butanol],–,146.4 Å²,146.4 Å²,152.5 Å²,–
"COc1cc(S(=O)(=O)Nc2ccccc2)c(OC)cc1N [4-Amino-2,5-dimethoxy-N-phenylbenzenesulfonamide]",169 Å²,–,–,180.5 Å²,167.2 Å²
CC(=O)c1ccc(N)cc1 [4-Aminoacetophenone],125 Å²,–,–,–,–
NC(=O)c1ccc(N)cc1 [4-Aminobenzamide],–,126.4 Å²,126.5 Å²,–,–
Nc1ccc(S(=O)(=O)O)cc1 [4-Aminobenzenesulfonic acid],134.5 Å²,–,–,–,–
Oc1ccc(Nc2ccccc2)cc1 [4-Anilinophenol],147.4 Å²,–,–,–,140.4 Å²
"O=C(Oc1ccc(Br)cc1)N1CCN2CCC1CC2 [4-Bromophenyl 1,4-diazabicyclo(3.2.2)nonane-4-carboxylate]",–,177.7 Å²,178.5 Å²,–,–
CCCCc1ccc(N)cc1 [4-Butylaniline],–,–,149.8 Å²,–,–
CCCCOc1ccc(N)cc1 [4-Butyloxyaniline],–,–,153.5 Å²,–,–
CCCCc1ccc(O)cc1 [4-Butylphenol],140.6 Å²,–,–,–,–
